The target in one series is human 5-HT2B receptor (Homo sapiens, UniProt P41595). Briefly: Human 5-HT2B FLIPR calcium mobilization assay. Type of series: cell-based. The arrangement: expressed in transfected cells; host or cells: HEK293. The settings on record: for Emax (% of serotonin): HEK293 cells, relative to maximum response of serotonin. As for the experimental part: Compound potency (EC50) and efficacy (Max response) against the human 5-HT2B receptor in stably transfected HEK293 cells were determined in a calcium mobilization-based assay.
Sequence of human 5-HT2B receptor (P41595 whole entry): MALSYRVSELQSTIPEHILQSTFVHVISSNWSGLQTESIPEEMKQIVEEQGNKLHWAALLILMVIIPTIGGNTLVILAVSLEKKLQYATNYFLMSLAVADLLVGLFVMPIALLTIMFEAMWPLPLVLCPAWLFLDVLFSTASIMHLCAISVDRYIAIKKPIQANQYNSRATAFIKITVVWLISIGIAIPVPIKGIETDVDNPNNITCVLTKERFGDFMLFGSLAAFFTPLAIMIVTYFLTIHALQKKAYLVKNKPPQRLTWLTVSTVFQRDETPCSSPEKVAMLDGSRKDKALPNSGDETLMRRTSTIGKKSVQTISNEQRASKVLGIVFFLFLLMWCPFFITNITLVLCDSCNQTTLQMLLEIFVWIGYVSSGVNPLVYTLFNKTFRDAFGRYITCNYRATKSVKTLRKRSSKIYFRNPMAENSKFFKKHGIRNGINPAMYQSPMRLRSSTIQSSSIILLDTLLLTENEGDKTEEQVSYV
Cells were seeded in a total volume of 20 μL into white walled, 384-well microplates and incubated at 37° C. overnight. Prior to testing, cell plating media was exchanged with 20 μL of Dye Loading buffer (HBSS+20 mM HEPES containing 1× Dye, 1× Additive A, and 2.5 mM Probenecid). Plates were incubated at 37° C. for 45 mins followed by 15 mins at room temperature.
10 μL of assay buffer (HBSS+20 mM HEPES) were added to cells. Intermediate dilution of sample stocks was performed to generate 4× samples in assay buffer. Assay plates and compound plates were loaded into the FLIPR instrument. 10 μL of sample was added using the FLIPR onboard robotics after 5 seconds of starting calcium measurement. A final assay vehicle concentration was 1%. The results are expressed as percent efficacy relative to the maximum response of the control ligand (serotonin) in Table 12.
Compound potency (EC50) and efficacy (Max response) against the human 5-HT2B receptor in stably transfected HE K293 cells was determined in a calcium mobilization-based assay.
10 μL of assay buffer (HBSS+20 mM HEPES) was added to cells. Intermediate dilution of sample stocks was performed to generate 4× samples in assay buffer. Assay plates and compound plates were loaded into the FLIPR instrument. 10 μL of samples were added using the FLIPR onboard robotics after 5 secs of starting calcium measurement. The final assay vehicle concentration was 1%. The results are expressed as percent efficacy relative to the maximum response of the control ligand (serotonin) in Table 62.

The nature of series [1]: Plasma protein binding by equilibrium dialysis, mouse. The format is in vitro ADME. The settings on record: for recovery at 6 h, 1 µM: CD-1, mouse, plasma; for fraction unbound at 6 h, 1 μM: CD-1, read-out: % Bound (converted). On the procedure: The final concentration of compound was 1 μM. The final concentration of DMSO was 0.5%. Ketoconazole was used as positive control in the assay.
The assay was performed in duplicate.
All calculations were carried out using Microsoft Excel. […] The percentages of bound compound were calculated as follows: […]
Ketoconazole was used as positive control in the assay.

Series [2] has as its target T1, human 5-hydroxytryptamine receptor 1A (5-HT1A) (Homo sapiens, UniProt P08908).
T1 sequence (P08908 1-422): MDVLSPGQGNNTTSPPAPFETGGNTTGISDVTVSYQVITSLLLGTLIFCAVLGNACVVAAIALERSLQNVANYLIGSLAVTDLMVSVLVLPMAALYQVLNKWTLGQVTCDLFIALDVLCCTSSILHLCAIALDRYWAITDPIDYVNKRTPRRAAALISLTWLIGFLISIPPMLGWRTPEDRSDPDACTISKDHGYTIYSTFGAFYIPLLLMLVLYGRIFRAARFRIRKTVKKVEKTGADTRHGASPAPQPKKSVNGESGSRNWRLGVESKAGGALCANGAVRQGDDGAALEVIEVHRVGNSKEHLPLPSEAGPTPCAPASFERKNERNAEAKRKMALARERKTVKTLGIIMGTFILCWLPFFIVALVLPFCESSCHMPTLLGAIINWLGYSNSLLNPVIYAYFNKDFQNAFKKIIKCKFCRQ
Briefly: Human 5-HT1A radioligand binding assay ([3H]-8-Hydroxy-DPAT). As for the experimental part:
The objective of this study was to evaluate the binding properties of test compounds on 5-hydroxytryptamine receptor 1A (5-HT1A).
1. The assay buffer was prepared following Table 25 below.
2. 8 doses of reference and test compounds were prepared starting from 10 mM stock solution as required by 5-fold serial dilutions with 100% (v/v) DMSO.
3. UniFilter-96 GF/B plate was pretreated: • i. 50 μl/well of 0.5% (v/v) PEI was added to UniFilter-96 GF/B plates. The plates were sealed and incubated at 4° C. for 3 hrs. • ii. After incubation, the plates were washed 3 times with ice-cold wash buffer (50 mM Tris, pH7.4).
4. Assay plate was prepared: • i. Cell membrane was diluted with assay buffer and 100 μl/well was added to 96 round well plates to reach a concentration of 20 μg/well. • ii. 8 concentrations of reference or test compounds were prepared and 50 μl/well was added to 96 round deep well plates. • iii. [3H]-8-Hydroxy-DPAT was diluted with assay buffer to 2 nM (4× final concentration) and 50 μl/well was added to 96 round well plates.
5. The plate was centrifuged at 1000 rpm for 30 secs and then agitated at 600 rpm at room temperature for 5 min.
6. The plates were sealed and the plate was incubated at 27° C. for 90 min.
7. The incubation was stopped by vacuum filtration onto GF/B filter plates followed by 4 times washing with ice-cold wash buffer (50 mM Tris, pH7.4).
9. The filter plates were sealed and 40 μl/well of scintillation cocktail was added.
10. The plate was read by using a Microbeta^2 microplate counter.
1. For reference and test compounds, the results were expressed as % Inhibition, using the normalization equation: N=100−100×(U−C2)/(C1−C2), where U is the unknown value, C1 is the average of high controls, and C2 is the average of low controls.
2. The IC50 was determined by fitting percentage of inhibition as a […] of compound concentrations with Hill equation using XLfit.
1. The assay buffer was prepared following Table 55 below.
3. UniFilter-96 GF/B plate was pretreated: • i. 50 μL/well of 0.5% (v/v) PEI was added to UniFilter-96 GF/B plates. The plates were sealed and incubated at 4° C. for 3 hrs. • ii. After incubation, the plates were washed 3 times with ice-cold wash buffer (50 mM Tris, pH7.4).
4. Assay plate was prepared: • i. Cell membrane was diluted with assay buffer and 100 μl/well was added to 96 round well plates to reach a concentration of 20 μg/well. • ii. 8 concentrations of reference or test compounds were prepared and 50 μl/well was added to 96 round deep well plates. • iii. [3H]-8-Hydroxy-DPAT was diluted with assay buffer to 2 nM (4× final concentration) and 50 μL/well was added to 96 round well plates.

The mark [3] stands for this setting: calcium mobilization FLIPR, stably transfected HEK293 cells, read-out: EC50.
Setting [4] is: mouse plasma, equilibrium dialysis, 37° C., 6 hours.

Read-outs that look alike come from different tables or passages of the source.

Take `[2H]C([2H])(c1c[nH]c2ccc(OCCCCCN3C(=O)[C@H]4CCCC[C@H]4C3=O)cc12)[C@H]1CCCN1C([2H])([2H])[2H]` [Cis (R) I-248, 2-(5-((3-(((R)-1-(Methyl-d3)pyrrolidin-2-yl)methyl-d2)-1H-indol-5-yl)oxy)pentyl)hexahydro-1H-isoindole-1,3(2H)-dione]: the “Emax (% of serotonin)” value on human 5-HT2B receptor (calcium mobilization FLIPR) is 69.85 % of serotonin. Moreover, the concentration giving a half-maximal response (EC50) at human 5-HT2B receptor (setting [3]) worked out at 24.9 nM.
As to `[2H]C([2H])(c1c[nH]c2ccc(OCCCCN3C(=O)c4ccccc4C3=O)cc12)[C@H]1CCCN1C([2H])([2H])[2H]` [(R) I-244, (R)-2-(4-((3-((1-(Methyl-d3)pyrrolidin-2-yl)methyl-d2)-1H-indol-5-yl)oxy)butyl)isoindoline-1,3-dione], in series [1] (setting [4]), the recovery at 6 h, 1 µM amounted to 84.8% and the fraction unbound at 6 h, 1 μM was 0.101. In addition, the “% Remaining @ 6 hours” value in series [1] (mouse plasma, 6 hours) was found to be 94.96%. In addition, the “Emax (% of serotonin)” value at human 5-HT2B receptor (calcium mobilization FLIPR) is listed as 92.75 % of serotonin. Besides, the concentration giving a half-maximal response (EC50) on human 5-HT2B receptor (setting [3]) worked out at 2.5 nM. Also, the IC50 in series [2] was 15 nM.
In turn, `CSc1ccc2[nH]cc(C[C@H]3CCCN3C)c2c1` [(R) I-1, (R)-3-((1-Methylpyrrolidin-2-yl)methyl)-5-(methylthio)-1H-indole] gave a recovery at 6 h, 1 µM in series [1] (Mouse plasma, 1 μM, equilibrium dialysis 6 hours) of 113%. Further, the fraction unbound at 6 h, 1 μM in series [1] (Mouse plasma, 1 μM, equilibrium dialysis 6 hours, 37° C.) was 0.521. Also, the “% Remaining @ 6 hours” value in series [1] (Mouse plasma, 1 μM, 6 hours, 37° C.) was 112.85%. On human 5-HT2B receptor, the EC50 is 2.74 nM. Moreover, the “Emax (% of serotonin)” value at human 5-HT2B receptor (calcium mobilization FLIPR) is listed as 62.94 % of serotonin. This compound also displayed an IC50 in series [2] of 3 nM.
Regarding `[2H]C([2H])(c1c[nH]c2ccc(OCCCCCN3C(=O)c4ccccc4C3=O)cc12)[C@H]1CCCN1C([2H])([2H])[2H]` [(R) I-245, (R)-2-(5-((3-((1-(Methyl-d3)pyrrolidin-2-yl)methyl-d2)-1H-indol-5-yl)oxy)pentyl)isoindoline-1,3-dione], the “Emax (% of serotonin)” value at human 5-HT2B receptor (calcium mobilization FLIPR) is 53.91 % of serotonin. The EC50 on human 5-HT2B receptor (setting [3]) was found to be 11.2 nM. Besides, the IC50 in series [2] is 5 nM.
In series [2], `[2H]C([2H])(c1c[nH]c2ccc(OCCCCCN3C(=O)C4CCCCC4C3=O)cc12)[C@H]1CCCN1C([2H])([2H])[2H]` (mixture of isomers) [Rac (R) I-248] gave an IC50 of 8.3 nM.
With `COCCN1CCC[C@@H]1Cc1c[nH]c2ccc(OC)cc12` [(R) I-98, (R)-5-Methoxy-3-((1-(2-methoxyethyl)pyrrolidin-2-yl)methyl)-1H-indole], in series [1] (setting [4]), the recovery at 6 h, 1 µM was determined as 96.4% and the fraction unbound at 6 h, 1 μM was 0.632. Besides, the “% Remaining @ 6 hours” value in series [1] (mouse plasma, 6 hours) is listed as 103.70%. The “Emax (% of serotonin)” value on human 5-HT2B receptor (calcium mobilization FLIPR) is listed as 52.7 % of serotonin. Further, on human 5-HT2B receptor (setting [3]), the EC50 was 2.88 nM. The compound further registered an IC50 in series [2] of 5 nM.

(Values after patent US12606543B2, “Indole derivatives as serotonergic agents useful for the treatment of disorders related thereto” (priority 2023, dated 2026).)
